Measurements from patent publication US5198552A, “Indole derivative having antiviral, interferon-inducing and immunomodulatory effects” (priority 1991, dated 1993).
“Also recorded” adds a separate entry of the source. Where two headings read alike, the source gives them in different places.

Legend:
Salmonella typhimurium = assay: Mutagenic activity on Salmonella typhimurium; details: 50 to 1000 μm per disk
[1] = Acute toxicity, single oral administration, mice; details: mouse, in vivo
influenza A/B viruses [2] = assay: Medicinal effect on experimental influenzal pneumonia of mice induced by influenza A/B viruses; assay type: in vivo; details: hydrochloride monohydrate
interferon = assay type: cell-based, hen; details: 20 µg/ml
influenza A/B viruses [3] = assay type: cell-based
[4] = Prolonged administration to animals; assay type: in vivo

## CCOC(=O)c1c(CSc2ccccc2)n(C)c2cc(Br)c(O)c(CN(C)C)c12.Cl.O [preparation of the invention, ethyl 6-bromo-5-hydroxy-4-dimethylaminomethyl-1-methyl-2-phenylthiomethylindole-3-carboxylate hydrochloride monohydrate]
Salmonella typhimurium
  mutagenic activity: no mutagenic activity
[1]
  LD50: 340 mg/kg
Influenza A/B viruses [2]
  medicinal (chemotherapeutical) effect on influenzal pneumonia: shows a pronounced chemotherapeutical effect; also recorded: Exerts a medicinal effect
interferon; 8 hours
  Interferon titer: 640-1280 U/ml
interferon; 24 hours
  maximum interferon titer: 2560 U/ml
interferon; by 48 hours
  Interferon titer: 320 U/ml
Influenza A/B viruses [3]; hydrochloride monohydrate
  inhibition of influenza A/B virus reproduction / chemotherapeutical effect: shows a pronounced chemotherapeutical effect; also recorded: Inhibits the reproduction
Influenza A/B viruses [3]; single-stage infection, 5 μm/ml, reducing infectivity titer and suppressing plague-forming activity
  stage at which the virus-inhibiting effect is expressed: early stages of influenza viruses reproduction in cells: adsorption, penetration and probably deproteinization
[4]
  alternations in parenchymatous organs: may cause in animals the development of non-specific degenerative alternations in parenchymatous organs
